The numbers were not newly measured in US20030104981A1 (priority 1995, published 2003), which cites them from elsewhere.

The conditions of data set [1]: assumed; cited from earlier work.
Data set [2] deals with LB lymphoma cell. Conditions: cited from earlier work.
The test system of data set [3] is LB and IM-9. Conditions: cited from earlier work.
For data set [4] the following is noted: poster presentation, 1992; cited from earlier work.
Data set [5] deals with IDE (Homo sapiens, UniProt P14735). Conditions: cited from earlier work.

As for “des-(B26-B30)-[Glu-B^10; Tyr-B^25—NH2] insulin analogue”, in data set [1], the “activity, times more active than native insulin” value is on record as “at least 20 times”.

Take “A8 His B10 Glu B27 His (code name H2) insulin [Radoyka H2]”: the “mitogenic potency (literature)” value in data set [2] is “most potent mitogen”. Also, the “binding to LB and IM-9” value in data set [3] is on record as “bound essentially irreversibly”.

For the substance “B10 Asp insulin: B10 His replaced by Asp in native insulin”, in data set [4], the mitogenic effect result is recorded as “significantly increased mitogenic effect”.

With “rat insulin analogue at B16 Tyr→Asp replacement: engineered rat insulin analogue at B16 Tyr→Asp replacement (group in Geneva)”, the “susceptibility to cleavage by IDE” value in data set [5] is listed as “unchanged susceptibility to cleavage by IDE”.
